From EP0085866A1, “Derivatives of benzo-1,2-thiazine-1,1-dioxide, a process for their preparation and pharmaceutical compositions containing the same” (priority 1982, dated 1983)
Where two headings read alike, the source gives them in different places.

Experiments:
[1] = test system: erythema by U.V. in the guinea pig; test: Erythema by U.V.; type: in vivo; conditions: on molar basis, times as active as piroxicam
Excerpt: (§1) In other tests of direct comparison between piro xicam and CHF 1021, the latter confirmed its anti inflammatory activity, along with a good analgesic and antipiretic activity.

[2] = test system: oedema induced in the rat's paw by carrageenin; test: Antiinflammatory activity in the test of plantar edema by carrageenin; type: in vivo, Crl: CD(SD) male rats; conditions: for ED30: Rattus norvegicus, po; for antiinflammatory activity (in words): comparison with piroxicam, rat
Protocol: Crl: CD(SD) male rats, weighing 170-205 g, previously subjected to an acclimation period of at least one week through housing in environment with co.stant thermohygrometric conditions and fa sting with water ad libitum 18 hours before the start of the test, have been distributed "at ran dom" in groups of 5-6 animals each (4 groups cor responding to 4 different dose levels for each compound). A group of control animals has been treated only with the vehicle. […] Soc. Exp. Biol. Med. 111, 544, 1962). The volume of the treated paw has been measured by means of a water-mercury pletismometer according to Leuce P., Arch. Int. Pharmacodyn. 136, 237, 1962) immediately before and at different […] injection of the phlogogenic agent. The results have been expressed as ED30 values calculated on the logarithmic regression straight lines of the percent dose/inhibition of the oedema development, in turn determined from the ratio between the mean AUC value (area under the curve representing the development of the paw volume in the time) in the different treated animals groups and the respective control groups.

[3] = test system: male mice IVA:NMRI (SPF); test: Acute toxicity by single oral administration; type: in vivo; conditions: versus piroxicam
Protocol: (§2) The toxicity by single administration has been determined by oral route in male mice IVA:NMRI (SPF), fasting, with water ad libitum 18 hours before the experiment. The substances under exam were suspended in 1% carboxymethylcellulose.

[4] = Acute toxicity by single oral administration; type: in vivo; conditions: mouse, in vivo
Protocol: as §2

[5] = test system: plantar oedema by nystatin in the rat; test: Plantar oedema by nystatin; type: in vivo; conditions: on molar basis, times as active as piroxicam
Excerpt: as §1

[6] = test system: arthritis by adjuvant in the rat; test: Arthritis by adjuvant; type: in vivo; conditions: direct comparison with piroxicam
Excerpt: as §1

[7] = Preliminary clinical data; type: in vivo
[8] = test system: writhing test by phenylquinone in the mouse; test: Writhing test by phenylquinone; type: in vivo; conditions: on molar basis, times as active as piroxicam
Excerpt: as §1

[9] = test system: gastric mucosa; test: Gastrolesive activity (macroscopic control of the gastric mucosa); type: in vivo, Crl: CD(SD) male rats; conditions: for Therapeutic index UD3/ED30 / Gastrolesive activity UD3: oral route, exp. session I and II (r4-r7); for Therapeutic index UD3/ED30: rat; for Gastrolesive activity UD3: dose expected to give gastric lesion of total extension of 3 mm, 7 hours after administration; for improvement of tolerability (in words): versus parent compound piroxicam
Excerpt: On the ground of such lines the calculation of UD3 values, that is a dose whereby a gastric lesion of the total extension of 3 mm is expected, has been performed.

[10] = test system: fever by beer's yeast; test: Fever by beer's yeast; type: in vivo, reat; conditions: on molar basis, times as active as piroxicam
Excerpt: as §1

[11] = 1 hour before carrageenin, from inhibition of oedema AUC, exp. session I and II (r4-r7)
[12] = single administration, oral route, fasting male mice, suspended in 1% carboxymethylcellulose, interpolation on Probit paper, read-out: Approx. LD50

SMILES | potency ratio (ratio between ED50 values) [1] | ED30 [2, 11] | antiinflammatory activity (in words) ([2]; oral route) | acute toxicity, lower in comparison to the reference compound [3] | LD50 [4, 12] | potency ratio (ratio between ED50 values) [5] | activity on the arthritis by adjuvant (in words) [6] | antiinflammatory activity in comparison with piroxicam (in words) [7] | incidence of side effects relative to the reference drug ([7]; fraction of that of piroxicam) | potency ratio (ratio between ED50 values) [8] | Therapeutic index UD3/ED30 [9] | Gastrolesive activity UD3 [9] | ulcerogenic activity, times lower in comparison to the reference compound ([9]; versus piroxicam) | potency ratio (ratio between ED50 values) [10] | LD50 ([4]; po) | improvement of tolerability (in words) [9] | Antiinflammatory activity ED30 ([2]; oral route, 1 hour before carrageenin, from inhibition of oedema AUC, exp. session I and II (r4-r7)) | ulcerogenic potency ratio ([9]; ratio to piroxicam taken as 1)
CN1C(C(=O)Nc2ccccn2)=C(OC(=O)C(C)(C)C)c2ccccc2S1(=O)=O [CHF 1021, 4-Pivaloyloxy-2-methyl-2H-1,2-benzothiazine-3-[N-(2-pyridyl)-carboxamide]-1,1-dioxide] | 0.49 | 7.9 µmol/kg | comparable to the one of the reference compound | about 35% | 1800 mg/kg | 1.52 | almost equally active | practically equally active | about 1/3 | 0.72 | 12.3 | 97.2 µmol/kg | at least 10 times | 0.71 | – | – | – | –
CN1C(C(=O)Nc2nccs2)=C(OC(=O)C(C)(C)C)c2ccccc2S1(=O)=O [CHF 1047, 4-pivaloyloxy-2-methyl-2H-1,2-benzothiazine-3-[N-(2-thiazolyl)-carboxamide]-1,1-dioxide] | – | ~762 µmol/kg | very low | – | > 3000 mg/kg | – | – | – | – | – | 0.2 | 121.2 µmol/kg | – | – | – | – | – | –
CCCCC(=O)OC1=C(C(=O)Nc2ccccn2)N(C)S(=O)(=O)c2ccccc21 [CHF 1109] | – | 7 µmol/kg | analogous or also slightly higher than the one of the parent compound | – | – | – | – | – | – | – | 4.0 | 28.2 µmol/kg | – | – | 1100 mg/kg | do not show an improvement | – | –
CN1C(C(=O)Nc2ccccn2)=C(O)c2ccccc2S1(=O)=O [piroxicam, reference compound] | – | 7.8 µmol/kg | – | – | 345 mg/kg | – | – | – | – | – | – | – | – | – | – | – | 9.7 µmol/kg | –
CCCC(=O)OC1=C(C(=O)Nc2ccccn2)N(C)S(=O)(=O)c2ccccc21 [CHF 1115] | – | 5.7 µmol/kg | analogous or also slightly higher than the one of the parent compound | – | – | – | – | – | – | – | 4.2 | 23.9 µmol/kg | – | – | 880 mg/kg | do not show an improvement | – | 0.88
